Test results: patent US20150110814A1, “COMBINATION THERAPIES WITH PSMA LIGAND CONJUGATES” (PSMA Development Company, LLC, priority 2013, published 2015)
Square brackets hold non-standard residues; d marks the D form. Peptide text beside a SMILES is read from it. * marks the point of attachment. Dolaproine = CO[C@@H]([C@@H]1CCCN1)[C@@H](C)C(=O)O; Dil = CC[C@H](C)[C@H](NC)[C@@H](CC(=O)O)OC; X1 = C[C@@H](N*)[C@@H](O)c1ccccc1; NMeV = CN[C@H](C(=O)O)C(C)C

Tests used:
LNCaP cells = assay: Cell viability assay (CellTiter-Glo, inhibition of proliferation, Bliss synergy); type: cell-based, human; settings: for activity when combined with PSMA ADC: LNCaP cells (FIG. 8)
Experimental: (§1) Cells were plated at a density of 1×10^3 cells in 25 μL in 384-well white-colored microplates (Perkin Elmer) and cultured overnight. The next day, cells were treated with 1 or 2 drugs in a total volume of 50 μL. Cultures were incubated at 37° C. for 7 days. Viability was assessed on days 0 and 7 using CellTiter-Glo (Promega) and an Analyst GT luminescence reader at 560 nm emission (Molecular Devices). The percent inhibition of proliferation was calculated as (Vu−Vt)/(Vu−V0)×100, where Vu, Vt and V0 represent the viability values for untreated cells on day 7, treated cells on day 7, and cells prior to treatment on day 0, respectively. […] Values of >100% reflect cytotoxic compounds or combinations, where Vt<V0.
(§2) Drug combinations were tested in 3 to 7 independent repeat cell viability assays unless otherwise indicated Inhibition data were fit to a four-parameter logistic equation using GraphPad Prism. […] Bliss differences were calculated by subtracting the predicted value (Fc) from the experimentally observed inhibition. Mean Bliss differences were calculated for each point in a matrix of drug-drug combinations, converted to percentages, and assessed for statistical significance from the null value of zero using two-sided t-tests with a significance level of 0.05. Statistical evaluations were not performed in cases where the fractional growth inhibition exceeded unity, since such values fall outside the Bliss framework. In addition, Bliss differences of less than 5% were considered to be of limited biological relevance and were excluded from synergy considerations.

C4-2 cells = assay: as above; type: cell-based, human; settings: for activity when combined with PSMA ADC: C4-2 cells (FIG. 8)
Experimental: as §1, §2

[1] = test system: PSMA expression on C4-2 cells; assay: Flow cytometry of cell-surface PSMA expression; type: cell-based, human; design: cell-surface PSMA expression / PSMA expression on treated cells relative to untreated cells: dose or concentration left out as unconfirmed; settings: for cell-surface PSMA expression: 7 days post-treatment
Experimental: (§3) For short-term treatments (≦7 days), cells were plated on 24-well plates (BD Falcon) overnight, at a density of 200,000 cells per 500 μL. The next day, wells were exchanged with 500 μL of fresh media that included inhibitor, and incubated at 37° C. until the indicated time point. For the long-term treatments (>7 days), cells were plated on T-25 flasks (BD Falcon) overnight, at a density of 500,000 cells per flask in 5 mL of media. 5 mL of fresh media with or without treatment was exchanged the next day. On weekly splits thereafter, cells were detached with Cell Dissociation solution (Sigma), washed with fresh media, counted using Vi-CELL XR (Beckman Coulter), and split into two T-25 flasks for continued culture with or without inhibitor. Prior to analysis, cells were detached, counted and suspended in PBS (PBS(−), without Ca/Mg, Life Technologies) containing 0.3% bovine serum albumin (BSA, Sigma) and 0.1% sodium azide (VWR). Cells (100,000 in 100 μL) were placed in round-bottom 96-well plates (Falcon) and incubated for 30 minutes at room temperature with 1 μg/mL of anti-PSMA mAb 3.9 conjugated to phycoerythrin (PE). Cells then were washed twice with 200 μL PBS/BSA/azide buffer and read using a FACSCalibur instrument (BD Biosciences). A mouse IgG2b-PE conjugate of irrelevant specificity (Abcam) was included as an isotype control.

[2] = test system: PSMA expression on LNCaP cells; assay: Flow cytometry of cell-surface PSMA expression; type: cell-based, human; settings: antiandrogens concentrations above 1 mM, 7 days post-treatment
Experimental: as §3

PSMA in LNCaP cells = assay: Western blotting of total PSMA; type: cell-based, human; settings: 7 days, serial dilution of lysates
Experimental: (§4) Cells (300,000) were incubated overnight in 6-well plates (BD Falcon) in 4 mL of 10% FBS RPMI1640 media prior to addition of inhibitors. Plates were incubated at 37° C. for an additional 7 days, washed once with 5 mL of cold PBS(−) and placed on ice. Cells were lysed with 130 μL of RIPA Lysis Buffer (Santa Cruz Biotechnology) and then centrifuged at 14,000×g for 10 minutes at 4° C. The supernatant was quantitated for protein concentration using a BCA kit (Pierce/Thermo), resolved under reducing conditions using NuPAGE Novex 4-12% Bis-Tris gels (Life Technologies), and transferred to nitrocellulose using the iBlot 7-Minute Blotting System (Life Technologies). Membranes were blocked using Odyssey Blocking Reagent (LI-COR Biosciences), incubated with primary and secondary antibodies, and visualized using an Odyssey infrared imager (LI-COR Biosciences).

PSMA in C4-2 cells = assay: Western blotting of total PSMA; type: cell-based, human; settings: 7 days
Experimental: as §4

[3] = test system: metastatic, castration-resistant prostate cancer (mCRPC); settings: subjects with mCRPC; cited from earlier work

For `CNC(=O)c1ccc(N2C(=S)N(c3ccc(C#N)c(C(F)(F)F)c3)C(=O)C2(C)C)cc1F` [Enzalutamide, enzalutamide], the single-agent antiproliferative effect (LNCaP cells; LNCaP cells, single agent) was “inhibited proliferation”, the “effect on the activity of PSMA ADC” value (C4-2 cells; C4-2 cells) was “significantly enhanced the activity of PSMA ADC” and the single-agent antiproliferative effect (C4-2 cells; C4-2 cells, single agent) was “minimal antiproliferative effects”. For the same compound, the “cell-surface PSMA expression” value ([1]; C4-2) was “approximately doubled”, the “cell-surface PSMA expression” value ([1]; C4-2, listed as enzalutamide) was “doubled” and the “time for PSMA expression to return to baseline in the absence of drug” value ([1]; C4-2, after 3 weeks culture in enzalutamide) was at most 7 days. For the same compound, the “PSMA expression on treated cells relative to untreated cells” value ([1]; C4-2, after 21 days) was 4 fold, the “exposure time to maximal PSMA expression” value ([1]; FIG. 15, cell line not stated in legend) was 3 to 4 weeks and the “cell-surface PSMA expression” value [2] was “approximately doubled”. For the same compound, the “magnitude of increase in PSMA (Western, semi-quantitative)” value (PSMA in LNCaP cells) was “approximately 5 fold” and the “PSMA upregulation (Western)” value (PSMA in C4-2 cells) was “upregulated PSMA to similar extents”.

With `C[C@]12C=CC(=O)C=C1CC[C@@H]1[C@@H]2C(=O)C[C@@]2(C)[C@H]1CC[C@]2(O)C(=O)CO` [Prednisone, prednisone] the “activity when combined with PSMA ADC” value (LNCaP cells) was “additive to weakly synergistic activity” and the “activity when combined with PSMA ADC” value (C4-2 cells) was “additive to weakly synergistic activity”.

With `Cc1ccc(C(=O)N(CCCN)[C@@H](c2oc3cc(Cl)ccc3c(=O)c2Cc2ccccc2)C(C)C)cc1` [SB-743921] the “activity when combined with PSMA ADC” value (LNCaP cells) was “additive to weakly synergistic activity” and the “activity when combined with PSMA ADC” value (C4-2 cells) was “additive to weakly synergistic activity”.

For `C[C@]12CC[C@H](O)CC1=CC[C@@H]1[C@@H]2CC[C@]2(C)C(n3cnc4ccccc43)=CC[C@@H]12` [TOK-001, galeterone], the single-agent antiproliferative effect (LNCaP cells; LNCaP cells, single agent) was “inhibited proliferation”, the “effect on the activity of PSMA ADC” value (C4-2 cells; C4-2 cells) was “enhanced the activity of PSMA ADC” and the single-agent antiproliferative effect (C4-2 cells; C4-2 cells, single agent) was “minimal antiproliferative effects”.

With `CC[C@H](C)[C@@H]([C@@H](CC(=O)N1CCC[C@H]1[C@H](OC)[C@@H](C)C(=O)N[C@H](C)[C@@H](O)c1ccccc1)OC)N(C)C(=O)[C@@H](NC(=O)[C@@H](NC)C(C)C)C(C)C` [MMAE, monomethylauristatin norephedrine] (H-[NMeV]V[Dil][Dolaproine]-X1) the “activity when paired with enzalutamide or abiraterone” value (LNCaP cells; LNCaP cells) was “additive activity”, the IC50 (LNCaP cells; LNCaP cells, single agent, 7 days) was about 500 pM and the “activity when paired with enzalutamide or abiraterone” value (C4-2 cells; C4-2 cells) was “additive to weakly synergistic activity”. For the same compound, the IC50 (C4-2 cells; C4-2 cells, single agent, 7 days) was about 500 pM.

For `NC1(c2ccc(-c3nc4ccn5c(=O)[nH]nc5c4cc3-c3ccccc3)cc2)CCC1` [MK-2206], the “activity when combined with PSMA ADC” value (LNCaP cells) was “additive to weakly synergistic activity” and the “activity when combined with PSMA ADC” value (C4-2 cells) was “additive to weakly synergistic activity”.

With `CNC(=O)c1ccc(N2C(=S)N(c3cnc(C#N)c(C(F)(F)F)c3)C(=O)C23CCC3)cc1F` [ARN-509] the single-agent antiproliferative effect (LNCaP cells; LNCaP cells, single agent) was “inhibited proliferation”, the “effect on the activity of PSMA ADC” value (C4-2 cells; C4-2 cells) was “enhanced the activity of PSMA ADC” and the single-agent antiproliferative effect (C4-2 cells; C4-2 cells, single agent) was “minimal antiproliferative effects”.

In the case of `CO[C@H]1C[C@@H]2CC[C@@H](C)[C@@](O)(O2)C(=O)C(=O)N2CCCC[C@H]2C(=O)O[C@H]([C@H](C)C[C@@H]2CC[C@@H](O)[C@H](OC)C2)CC(=O)[C@H](C)/C=C(\C)[C@@H](O)[C@@H](OC)C(=O)[C@H](C)C[C@H](C)/C=C/C=C/C=C/1C` [Rapamycin, rapamycin], the “increase in PSMA expression” value ([1]; C4-2, low nanomolar concentrations, 7 days) is reported as over 2 fold.

For `CO[C@H]1C(=O)[C@]2(C)[C@@H](OC)C[C@H]3OC[C@@]3(OC(C)=O)[C@H]2[C@H](OC(=O)c2ccccc2)[C@]2(O)C[C@H](OC(=O)[C@H](O)[C@@H](NC(=O)OC(C)(C)C)c3ccccc3)C(C)=C1C2(C)C` [Jevtana, cabazitaxel], the survival benefit [3] is listed as 2.4 month.

For `CS(=O)(=O)N1CCN(Cc2cc3nc(-c4cccc5[nH]ncc45)nc(N4CCOCC4)c3s2)CC1` [GDC-0941, 2-(1H-indazol-4-yl)-6-(4-methanesulfonyl-piperazin-1-ylmethyl)-4-morpholin-4-yl-t hieno[3,2-d]pyrimidine], the “activity when combined with PSMA ADC” value (LNCaP cells) was “additive to weakly synergistic activity” and the “activity when combined with PSMA ADC” value (C4-2 cells) was “additive to weakly synergistic activity”.
